Laboratory results as given in patent US20250353821A1, “BENZENE SULFONAMIDE THIAZOLE COMPOUNDS AND THEIR USE FOR THE TREATMENT OF CANCERS” (INSERM (INSTITUT NATIONAL DE LA SANTÉ ET DE LA RECHERCHE …, priority 2021, published 2025).
Values after ≈ are worked out from the molar mass of the structure shown.

Legend:
A375 melanoma cells [1] = test: Cell viability by cell counting, trypan blue exclusion method; format: cell-based; details: Homo sapiens, A-375, 48 h, percentage of cells alive relative to negative control DMSO (100%)
Aqueous solubility = format: physicochemical; details: aqueous medium (not further specified), read-out: Solublity
CHOP in SH10TC cells = test: CHOP induction (ER stress marker), western blot, SH10TC; format: cell-based, human; parameters: key: −: No induction of CHOP; +: Induction of CHOP; ++: Significant induction of CHOP; +++: Strong induction of CHOP; details: SH10TC (serum free), 24 or 48 h
A375 melanoma cells [2] = test: IC50 determination in A375 cells, blue trypan exclusion; format: cell-based, human; details: Homo sapiens, A-375; A375, serum free, 24 h
CHOP in Kyse 70 cells = test: CHOP induction (ER stress marker), western blot, Kyse70; format: cell-based, human; parameters: key: −: No induction of CHOP; +: Induction of CHOP; ++: Significant induction of CHOP; +++: Strong induction of CHOP; details: Kyse70 (serum free), 24 h
CHOP in KATO III cells = test: CHOP induction (ER stress marker), western blot, Kato III; format: cell-based, human; parameters: key: −: No induction of CHOP; +: Induction of CHOP; ++: Significant induction of CHOP; +++: Strong induction of CHOP; details: Kato III (1% SVF), 24 or 48 h
[3] = test system: CHOP in A375 melanoma cells; test: CHOP induction (ER stress marker), western blot, A375; format: cell-based, human; parameters: key: −: No induction of CHOP; +: Induction of CHOP; ++: Significant induction of CHOP; +++: Strong induction of CHOP; details: A375 (serum free), 24 h

| SMILES | viability at 10 µM (A375 melanoma cells [1]) | solubility (Aqueous solubility) | viability at 1 µM (A375 melanoma cells [1]) | viability at 5 µM (A375 melanoma cells [1]) | also measured |
| --- | --- | --- | --- | --- | --- |
| COc1ccc(-c2csc(NC(C)=O)n2)cc1NS(=O)(=O)c1cccc2c(N(C)C)cccc12 [PB600, N-(4-(3-((5-(dimethylamino)naphthalene)-1-sulfonamido)-4-methoxyphenyl)thiazol-2-yl)acetamide] | 48.8 ± 4.3% |  |  |  |  |
| CN(C)c1cccc2c(S(=O)(=O)Nc3cc(-c4csc(NC(=O)CN5CCN(CCO)CC5)n4)ccc3F)cccc12 [PB601, N-(4-(3-((5-(dimethylamino)naphthalene)-1-sulfonamido)-4-fluorophenyl)thiazol-2-yl)-2-(4-(2-hydroxyethyl)piperazin-1-yl)acetamide] | 10.2 ± 2.7% | 5.2 ± 1.9 µM (≈ 3.19 µg/mL) | 47.2 ± 6.7% | 22.5 ± 5.3% |  |
| COc1ccc(-c2csc(NC(=O)CN3CCN(CCO)CC3)n2)cc1NS(=O)(=O)c1cccc2c(N(C)C)cccc12 [PB602, N-(4-(3-((5-(dimethylamino)naphthalene)-1-sulfonamido)-4-methoxyphenyl)thiazol-2-yl)-2-(4-(2-hydroxyethyl)piperazin-1-yl)acetamide] | 1 ± 1% | 3.4 ± 0.7 µM (≈ 2.12 µg/mL) | 47.6 ± 2.4% | 1.7 ± 0.9% |  |
| COCCOc1ccc(-c2csc(NC(C)=O)n2)cc1NS(=O)(=O)c1cccc2c(N(C)C)cccc12 [PB603, N-(4-(3-((5-(dimethylamino)naphthalene)-1-sulfonamido)-4-(2-methoxyethoxy)phenyl)thiazol-2-yl)acetamide] | 43.1 ± 8.7% |  |  |  |  |
| COCCOc1ccc(-c2csc(NC(=O)CN3CCN(CCO)CC3)n2)cc1NS(=O)(=O)c1cccc2c(N(C)C)cccc12 [PB604, N-(4-(3-((5-(dimethylamino)naphthalene)-1-sulfonamido)-4-(2-methoxyethoxy)phenyl)thiazol-2-yl)-2-(4-(2-hydroxyethyl)piperazin-1-yl)acetamide] | 16.3 ± 9.8% | 4.1 ± 0.4 µM (≈ 2.74 µg/mL) | 57.7 ± 16.5% | 19 ± 8.6% |  |
| CN(C)c1cccc2c(S(=O)(=O)Nc3cccc(-c4csc(NC(=O)COCC(O)CO)n4)c3)cccc12 (centres unmarked) [PB605, 2-(2,3-dihydroxypropoxy)-N-(4-(3-((5-(dimethylamino)naphthalene)-1-sulfonamido)phenyl)thiazol-2-yl)acetamide] | 6.4 ± 0.6% | 2.8 ± 0.5 µM (≈ 1.56 µg/mL) | 64.5 ± 4.3% | 29.4 ± 9.8% |  |
| CN(C)c1cccc2c(S(=O)(=O)Nc3cccc(-c4csc(NC(=O)CCCCCNC(=O)OC(C)(C)C)n4)c3)cccc12 [PB624, Tert-butyl(6-((4-(3-((5-(dimethylamino)naphthalene)-1-sulfonamido)phenyl)thiazol-2-yl)amino)-6-oxohexyl)carbamate] | 33.3 ± 5.5% |  |  | 87.8 ± 16.2% |  |
| CCOC(=O)CCCC(=O)Nc1nc(-c2cccc(NS(=O)(=O)c3cccc4c(N(C)C)cccc34)c2)cs1 [PB625, Ethyl 5-((4-(3-((5-(dimethylamino)naphthalene)-1-sulfonamido)phenyl)thiazol-2-yl)amino)-5-oxopentanoate] | 36.5 ± 7.5% |  |  | 93 ± 3% |  |
| CN(C)c1cccc2c(S(=O)(=O)Nc3cccc(-c4csc(NC(=O)CCCNC(=O)OC(C)(C)C)n4)c3)cccc12 [PB631, Tert-butyl (4-((4-(3-((5-(dimethylamino)naphthalene)-1-sulfonamido)phenyl)thiazol-2-yl)amino)-4-oxobutyl)carbamate] | 35.4 ± 14.2% |  |  | 31.3 ± 4.9% |  |
| CC(=O)NCCCC(=O)Nc1nc(-c2cccc(NS(=O)(=O)c3cccc4c(N(C)C)cccc34)c2)cs1 [PB633] | 43.8 ± 12.7% |  |  | 65.2 ± 9.9% |  |
| Cc1nc(-c2cccc(NS(=O)(=O)c3cccc4c(N(C)C)cccc34)c2)cs1 [PB635, 5-(dimethylamino)-N-(3-(2-methylthiazol-4-yl)phenyl)naphthalene-1-sulfonamide] | 46.9 ± 4.4% |  |  | 47 ± 13.5% |  |
| CN1CCN(CC(=O)Nc2nc(-c3cccc(NS(=O)(=O)c4cccc5c(N(C)C)cccc45)c3)cs2)CC1 [PB638, N-(4-(3-((5-(dimethylamino)naphthalene)-1-sulfonamido)phenyl)thiazol-2-yl)-2-(4-methylpiperazin-1-yl)acetamide] | 0% | 4 ± 2 µM (≈ 2.26 µg/mL) | 37.5 ± 5.9% | 0.9 ± 1% |  |
| CN(C)c1cccc2c(S(=O)(=O)Nc3cccc(-c4csc(NC(=O)CN5CCOCC5)n4)c3)cccc12 [PB639, N-(4-(3-((5-(dimethylamino)naphthalene)-1-sulfonamido)phenyl)thiazol-2-yl)-2-morpholinoacetamide] | 24% |  | 100 ± 23.6% | 63.5 ± 16% |  |
| CN(C)c1cccc2c(S(=O)(=O)Nc3cccc(-c4csc(NC(=O)CN5CCN(CCO)CC5)n4)c3)cccc12 [PB640, N-(4-(3-((5-(dimethylamino)naphthalene)-1-sulfonamido)phenyl)thiazol-2-yl)-2-(4-(2-hydroxyethyl)piperazin-1-yl)acetamide] | 0% | 4.2 ± 0.4 µM (≈ 2.5 µg/mL) | 54.2 ± 5.9% | 67 ± 10.6% |  |
| CN(C)c1cccc2c(S(=O)(=O)Nc3cccc(-c4csc(NC(=O)CN5CCC(C(N)=O)CC5)n4)c3)cccc12 [PB641, 1-(2-((4-(3-((5-(dimethylamino)naphthalene)-1-sulfonamido)phenyl)thiazol-2-yl)amino)-2-oxoethyl)piperidine-4-carboxamide] | 40% |  | 104 ± 5.9% | 105 ± 18.9% |  |
| CN(C)c1cccc2c(S(=O)(=O)Nc3cccc(-c4csc(NC(=O)CNCCO)n4)c3)cccc12 [PB643, N-(4-(3-((5-(dimethylamino)naphthalene)-1-sulfonamido)phenyl)thiazol-2-yl)-2-((2-hydroxyethyl)amino)acetamide] | 0% | 3 ± 1 µM (≈ 1.58 µg/mL) | 108 ± 11.8% | 29.8 ± 6.5% |  |
| CN(C)c1cccc2c(S(=O)(=O)Nc3cccc(-c4csc(NC(=O)CNCCCN5CCOCC5)n4)c3)cccc12 [PB644, N-(4-(3-((5-(dimethylamino)naphthalene)-1-sulfonamido)phenyl)thiazol-2-yl)-2-((3-morpholinopropyl)amino)acetamide] | 8% |  | 83.3 ± 23.6% | 11.7 ± 1.2% |  |
| CCOP(=O)(NCC(=O)Nc1nc(-c2cccc(NS(=O)(=O)c3cccc4c(N(C)C)cccc34)c2)cs1)OCC [PB649, Diethyl-(2-((4-(3-((5-(dimethylamino)naphthalene)-1-sulfonamido)phenyl)thiazol-2-yl)amino)-2-oxoethyl)phosphoramidate] | 26.4 ± 4.5% |  |  | 77.7 ± 19.8% |  |
| CC(=O)Nc1nc(-c2ccc(F)c(NS(=O)(=O)c3cccc4c(N(C)C)cccc34)c2)cs1 [PB651, N-(4-(3-((5-(dimethylamino)naphthalene)-1-sulfonamido)-4-fluorophenyl)thiazol-2-yl)acetamide] | 25 ± 8.1% |  |  | 89.4 ± 5.6% |  |
| CN(C)c1cccc2c(S(=O)(=O)Nc3cccc(-c4csc(NC(=O)CNCCS(=O)(=O)O)n4)c3)cccc12 [PB654, 2-((2-((4-(3-((5-(dimethylamino)naphthalene)-1-sulfonamido)phenyl)thiazol-2-yl)amino)-2-oxoethyl)amino)ethane-1-sulfonic] | 70 ± 13.8% | 88 ± 3 µM (≈ 51.9 µg/mL) |  | 89.4 ± 6.5% |  |
| CCCCCc1ccc(S(=O)(=O)Nc2cccc(-c3csc(NC(=O)CNCCN(C)C)n3)c2)cc1 [PB693, 2-((2-(dimethylamino)ethyl)amino)-N-(4-(3-((4-pentylphenyl)sulfonamido)phenyl)thiazol-2-yl)acetamide] |  |  |  |  | Induction of CHOP in comparison to control condition, SH10TC (CHOP in SH10TC cells): −; IC50 (A375 melanoma cells [2]): 1 µM; Induction of CHOP in comparison to control condition, Kyse70 (CHOP in Kyse 70 cells): +; Induction of CHOP in comparison to control condition, Kato III (CHOP in KATO III cells): −; Induction of CHOP in comparison to control condition, A375 [3]: ++ |
| CN1CCN(CCCCCC(=O)Nc2nc(-c3cccc(NS(=O)(=O)c4cccc5c(N(C)C)cccc45)c3)cs2)CC1 [PB697, N-(4-(3-((5-(dimethylamino)naphthalene)-1-sulfonamido)phenyl)thiazol-2-yl)-6-(4-methylpiperazin-1-yl)hexanamide] |  |  |  |  | IC50 (A375 melanoma cells [2]): 2 µM |
| CN(C)c1cccc2c(S(=O)(=O)Nc3cccc(-c4csc(NC(=O)CCCCCN5CCN(CCO)CC5)n4)c3)cccc12 [PB698, N-(4-(3-((5-(dimethylamino)naphthalene)-1-sulfonamido)phenyl)thiazol-2-yl)-6-(4-(2-hydroxyethyl)piperazin-1-yl)hexanamide] |  |  |  |  | IC50 (A375 melanoma cells [2]): 1.75 µM |
| CCCCCc1ccc(S(=O)(=O)Nc2cccc(-c3csc(N4CCN(C)CC4)n3)c2)cc1 [PB707, N-(3-(2-(4-methylpiperazin-1-yl)thiazol-4-yl)phenyl)-4-pentylbenzenesulfonamide] |  |  |  |  | IC50 (A375 melanoma cells [2]): 2.5 µM |
| CCCCCc1ccc(S(=O)(=O)Nc2cccc(-c3csc(N4CCN(CCO)CC4)n3)c2)cc1 [PB708, N-(3-(2-(4-(2-hydroxyethyl)piperazin-1-yl)thiazol-4-yl)phenyl)-4-pentylbenzenesulfonamide] |  |  |  |  | IC50 (A375 melanoma cells [2]): 2.5 µM |
